Reference: PubChem BioAssay (NCI)
“And” between values parts separate entries of the source, which are not always exact repeats. Identical values can stand only once.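 In this assay, cells in 96-well plates receive the compound at five concentrations for 48 hours. Endpoints are linearly interpolated between the surrounding concentrations. GI50 is the concentration that inhibits growth by half. Definition used: TGI = concentration required for complete inhibition of growth.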

Key:
Assay in all cases: DTP human tumour cell line panel, 48 h
CCRF-CEM leukemia = tested on: CCRF-CEM leukemia
HCT-116 colon = tested on: HCT-116 colon
LOX IMVI melanoma = tested on: LOX IMVI melanoma
NCI-H23 lung = tested on: NCI-H23 lung
NCI-H522 lung = tested on: NCI-H522 lung
SF-268 CNS = tested on: SF-268 CNS
SK-MEL-5 melanoma = tested on: SK-MEL-5 melanoma
SK-OV-3 ovarian = tested on: SK-OV-3 ovarian
UACC-62 melanoma = tested on: UACC-62 melanoma

SMILES | GI50 (CCRF-CEM leukemia) | TGI (CCRF-CEM leukemia) [µM] | GI50 (HCT-116 colon) [µM] | TGI (HCT-116 colon) [µM] | GI50 (LOX IMVI melanoma) | TGI (LOX IMVI melanoma) [µM] | GI50 (NCI-H23 lung) | TGI (NCI-H23 lung) [µM] | GI50 (NCI-H522 lung) [µM] | TGI (NCI-H522 lung) [µM] | GI50 (SF-268 CNS) | TGI (SF-268 CNS) [µM] | GI50 (SK-MEL-5 melanoma) [µM] | TGI (SK-MEL-5 melanoma) [µM] | GI50 (SK-OV-3 ovarian) | TGI (SK-OV-3 ovarian) [µM] | GI50 (UACC-62 melanoma) [µM] | TGI (UACC-62 melanoma) [µM]
CC1=C(C(=O)Nc2ccc(F)c(Cl)c2)C(c2ccc(Cl)cc2)NC(=O)N1 (configuration not stated) | 15.3 µM | 38.8 | 12.8 | 25.4 | 16.6 µM | 32 | 17.4 µM | 33.8 | 17.8 | 34.9 | 22.1 µM | 73.4 | 15.5 | 30.4 | 81.8 µM | > 100 | 14.1 | 27.2
CCc1ccc2c(c1)C(=O)c1c-2n(CCCBr)c(=O)c2cc([N+](=O)[O-])ccc12 | > 50 µM | > 50 | > 50 | > 50 | > 50 µM | > 50 | > 50 µM | > 50 | 45.9 | > 50 | 15.9 µM | > 50 | > 50 | > 50 |  |  | 32.2 | > 50
CC(C)c1ccc(C(C)C(=O)N(CC2=C(C(C)c3ccccn3)c3ccccc3C2)C(C)C)cc1 (configuration not stated) | 3.25 µM | 22 | 1.94 | 8.02 | 2.54 µM | 8.23 | 3.35 µM | 53.6 | 2.59 | 15.7 | 4.62 µM | > 100 | 1.97 | 4.62 | 6.63 µM | > 100 | 8.79 | 37.6
CCOC(=O)c1ncn2c1[nH]c(=S)c1ccccc12 |  | > 100 |  | > 100 |  | > 100 |  | > 100 |  | > 100 |  | > 100 |  | > 100 |  | > 100 |  | > 100
CSCCCN(CCCSC)CCCSC |  | > 100 |  | > 100 |  | > 100 |  | > 100 |  | > 100 |  | > 100 |  | > 100 |  | > 100 |  | > 100
Clc1cccc(Cc2cn3cc(-c4ccccc4)nc3s2)c1Cl | > 100 µM | > 100 | > 100 | > 100 | 14.5 µM | > 100 | 60.7 µM | > 100 | 19.4 | > 100 | 59.9 µM | > 100 | > 100 | > 100 | 10.3 µM | 97.6 | 1.83 | > 100
Fc1ccc(Nc2ncnc3ccc(-c4cnc5[nH]ccc5c4)cc23)cc1Cl | 7.83 µM | > 100 | 1.77 | 3.63 | 3.95 µM | > 29.4 | 8.74 µM | > 100 | 12.6 | 69.1 | 3.47 µM | > 73.4 | 6.88 | 40.3 | 4.62 µM | 32.6 | 6.06 | 63.3
O=C(NCCNc1nccc(-c2c(-c3cccc(O)c3)nc3sccn23)n1)c1ccccc1O | 1.21 µM | 19.4 | 3.42 | 14.9 | 3.03 µM | 23.7 | 4.51 µM | 36.8 | 4.24 | 16.9 | 5.4 µM | 46.6 | 1.47 | 5.21 | 4.31 µM | 39.7 | 0.181 | 4.91
CC1=C(C#N)C23C(=O)c4ccccc4C(O)=C2C(=O)C=CC3(O)N1Cc1ccccc1 (configuration not stated) |  |  | 34.8 | > 100 | 33 µM | > 100 | 29.9 µM | > 100 | 22.9 | 58.1 | 40.3 µM | > 100 | 18 | 61.5 | > 100 µM | > 100 | 47.4 | > 100
O=C(CN1CCN(c2cc3c(cc2F)c(=O)c(C(=O)N/N=C/c2ccccc2O)cn3C2CC2)CC1)N/N=C\c1ccccc1O | 0.167 µM | > 100 | 0.443 | > 100 | 0.232 µM | > 75.7 | 0.801 µM | > 100 | 0.405 | > 100 | 0.474 µM | > 100 | 0.876 | 2.95 | 0.763 µM | > 100 | 0.758 | 12.4
COC(=O)[C@@]12C3=NO[C@]1(C(=O)OC)C(O[Si](C)(C)C(C)(C)C)[C@H]1OC(C)(C)O[C@H]1[C@@H]2C(OCc1ccccc1)CC3 (some centres not stated) |  | > 100 |  | > 100 |  | > 100 |  | > 100 |  |  |  |  |  | > 100 |  | > 100 |  | > 100
CCCCCCCC(=O)SCC/C=C/[C@@H]1CC(=O)NCc2cccc(n2)C2=N[C@@](C)(CS2)C(=O)N[C@@H](C(C)C)C(=O)N1 | 1.47 µM | > 33.3 | 0.166 | 5.09 | 0.774 µM | 4.01 | 2.1 µM | > 33.3 | 0.12 | 1.85 | 2.28 µM | > 33.3 | 0.924 | 8.35 | 1.23 µM | 11 | 0.192 | 4.88
O=c1n(CC2CO2)c(=O)n(CC2CO2)n1CC1CO1 (configuration not stated) | 3.27 µM | > 80.2 | 18.9 | > 100 | 16.7 µM | > 100 | 22.7 µM | > 100 | 12.8 | > 49.2 | 15.7 µM | > 100 | 14.7 | > 79.9 | 8.37 µM | > 80.2 | 6.51 | > 64.1
COc1cc(C(=O)/C=C/c2sc(Cl)nc2Cl)cc(OC)c1OC | 1.91 µM | 4.95 | 1.75 | 3.18 | 1.58 µM | 2.97 | 1.64 µM | 3.04 | 1.68 | 3.96 | 1.79 µM | 3.77 | 1.95 | 3.96 | 6.43 µM | 19.8 | 1.86 | 3.61
CN(CC(=O)O)S(=O)(=O)c1ccc2ccccc2c1 |  | > 100 |  |  |  | > 100 |  | > 100 |  | > 100 |  | > 100 |  | > 100 |  | > 100 |  | > 100
O=C(O)c1cc(C(=O)O)cc(N2C(=O)c3ccccc3C2=O)c1 |  |  |  | > 100 |  | > 100 |  | > 100 |  | > 100 |  | > 100 |  | > 100 |  | > 100 |  | > 100
CC(C)=CCCc1c(C)ccc2c1C(=O)C(=O)C(C(C)C)=C2 |  | 1.9 |  | 6.55 |  |  |  | 8.52 |  | 6.39 |  | 11.8 |  | > 22 |  | > 22 |  | 
CNC(=O)c1cc(Oc2ccc3nc(NC(=O)Nc4ccc(Cl)c(C(F)(F)F)c4)sc3c2)ccn1 |  |  | 1.89 | 5.39 | 2.68 µM | > 100 | 2.48 µM | 8.17 | 2.54 | > 100 | 2.34 µM | 16.4 |  |  | 1.89 µM | 4.21 |  | 
COc1cc2cnc3c4cc(OC(C)C)c(OC)cc4ccc3c2cc1OC |  | > 100 |  | > 100 |  |  |  | > 100 |  | > 100 |  | > 100 |  | > 100 |  | > 100 |  | > 100
CCOC(=O)C1=C(C)CC2C(=O)OC(=O)C2C1(C)C (configuration not stated) |  | > 100 |  |  |  |  |  | > 100 |  | > 100 |  | > 100 |  | > 100 |  | > 100 |  | 
Oc1ccc(Cl)cc1-c1cc(-c2ccccc2Cl)[nH]n1 | 2.71 µM | > 100 | 4.6 | > 100 |  |  | 4.91 µM | > 100 | 3.26 | > 100 | 7.71 µM | > 100 | 5.66 | > 100 | > 100 µM | > 100 | 5.29 | > 100
COC(=O)[C@@H](C)C[C@H](Cc1ccc(F)cc1)NC(=O)c1csc([C@@H](C[C@H](C(C)C)N(C)C(=O)[C@@H](NC(=O)[C@H]2CCCCN2C)C(C)C)OC(C)=O)n1 | 0.000973 µM and 0.00639 µM | > 16.7 |  | 0.225 | 0.00184 µM and 0.0095 µM | > 16.7 | 0.00355 µM and 0.0134 µM | > 16.7 | 0.0002 | 0.00082 | 0.00441 µM and 0.00923 µM | > 16.7 |  |  | 0.00736 µM and 0.0553 µM | > 16.7 |  | > 16.7
COc1ccc(-c2cc(=O)c3ccc(O)cc3o2)c(OC)c1OC |  | > 100 |  | > 100 |  | > 100 |  | > 100 |  | 82.8 |  | > 100 |  |  |  | > 100 |  | > 100
c1cc2c(cc1NC1=NCCO1)CCC2 |  | > 10 |  | > 10 |  | > 10 |  | > 10 |  |  |  | > 10 |  | > 10 |  | > 10 |  | > 10
CC(=O)OC(C)C(=O)C1c2cccc(O)c2C(=O)c2c(O)cc(C)cc21 (configuration not stated) |  | 6.05 |  | 1.09 |  | 1.82 |  | 1.15 |  | 3.02 |  | 1.5 |  | 1.31 |  | 1.81 |  | 
